# In patent US10195185B2, “3-(1H-imidazo[4,5-C]pyridin-2-yl)-1H-pyrazolo[4,3-B]pyridines and therapeutic uses thereof” (Samumed, LLC, priority 2015, dated 2019):
# Experiments:
# [1] = test system: primary human mesenchymal stem cells (hMSCs); test: Induction of chondrogenesis in hMSCs (nodule area, Rhodamine B / Nile Red); format: cell-based; settings: TGF-β3 as positive control; for Emax: read-out: Max. Activity as % TGF-β3 activity; for EC50: concentration required to induce 50% levels of chondrogenesis, read-out: Conc (nM) of 50% TGF-β3 activity
# Method in brief: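 Primary hMSCs (passage 3–6) in incomplete chondrogenic induction medium were treated 6 days at 37° C. with 1:3 dilutions (2700–10 nM in 96-well or 5000–2.2 nM in 384-well; 0.03% DMSO). Rhodamine B/Nile Red-stained nodule area was imaged, normalized to DMSO wells, and EC50 was set against TGF-β3 (10 ng/mL).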
# [2] = test system: IL-6 in human monocyte cell line (THP-1 cells); test: IL-6 inhibition in LPS-stimulated THP-1 cells (HTRF); format: cell-based; settings: IL-6 in LPS-stimulated THP-1 cells; for EC50: HTRF; for inhibition at 10 µM: read-out: percent inhibition in brackets beside EC50 >10 μM
# Method in brief: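 THP-1 cells, serum-reduced (1% FBS) for 24 h, were preincubated with compound (10-point 1:3 series from 10 μM, 0.1% DMSO) for 2 h, then stimulated with 500 ng/mL LPS for 22 h at 37° C. IL-6 was read by HTRF (665/620 nm ratio) and normalized to DMSO. EC50 from four-parameter fit; % inhibition at 10 μM given if EC50 >10 μM.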
SMILES,EC50 [1] [nM],EC50 [2] [µM],Emax [1] [%],inhibition at 10 µM [2] [%]
"CN(C)c1cncc(-c2ccc3[nH]nc(-c4nc5c(-c6cccs6)nccc5[nH]4)c3n2)c1 [Compound 343, N,N-Dimethyl-5-(3-(4-(thiophen-2-yl)-1H-imidazo[4,5-c]pyridin-2-yl)-1H-pyrazolo[4,3-b]pyridin-5-yl)pyridin-3-amine]",100,3.43,85,
"CC(C)Nc1cncc(-c2ccc3[nH]nc(-c4nc5c(-c6cc(F)cc(NCCN(C)C)c6)nccc5[nH]4)c3n2)c1 [Compound 460, N^1-(3-Fluoro-5-(2-(5-(5-(isopropylamino)pyridin-3-yl)-1H-pyrazolo[4,3-b]pyridin-3-yl)-1H-imidazo[4,5-c]pyridin-4-yl)phenyl)-N^2,N^2-dimethylethane-1,2-diamine]",30,1.25,116,
"CCCC(=O)Nc1cncc(-c2ccc3[nH]nc(-c4nc5c(-c6cc(F)cc(CNS(C)(=O)=O)c6)nccc5[nH]4)c3n2)c1 [Compound 493, N-(5-(3-(4-(3-Fluoro-5-(methylsulfonamidomethyl)phenyl)-1H-imidazo[4,5-c]pyridin-2-yl)-1H-pyrazolo[4,3-b]pyridin-5-yl)pyridin-3-yl)butyramide]",,> 10,46,20.3
"CS(=O)(=O)NCc1cc(F)cc(-c2nccc3[nH]c(-c4n[nH]c5ccc(-c6cncnc6)nc45)nc23)c1 [Compound 503, N-(3-Fluoro-5-(2-(5-(pyrimidin-5-yl)-1H-pyrazolo[4,3-b]pyridin-3-yl)-1H-imidazo[4,5-c]pyridin-4-yl)benzyl)methanesulfonamide]",,> 10,,40.8
"Fc1cccc(-c2nccc3[nH]c(-c4n[nH]c5ccc(C6CCNCC6)nc45)nc23)c1 [Compound 505, 3-(4-(3-Fluorophenyl)-1H-imidazo[4,5-c]pyridin-2-yl)-5-(piperidin-4-yl)-1H-pyrazolo[4,3-b]pyridine]",,> 10,46,9.3
"O=C(Nc1cncc(-c2ccc3[nH]nc(-c4nc5c(-c6cccs6)nccc5[nH]4)c3n2)c1)C1CC1 [Compound 356, N-(5-(3-(4-(Thiophen-2-yl)-1H-imidazo[4,5-c]pyridin-2-yl)-1H-pyrazolo [4,3-b]pyridin-5-yl)pyridin-3-yl)cyclopropanecarboxamide]",,> 10,,0
"c1cc(-c2nccc3[nH]c(-c4n[nH]c5ccc(-c6cncc(OC7CCNCC7)c6)nc45)nc23)ccn1 [Compound 576, 5-(5-(Piperidin-4-yloxy)pyridin-3-yl)-3-(4-(pyridin-4-yl)-1H-imidazo[4,5-c]pyridin-2-yl)-1H-pyrazolo[4,3-b]pyridine]",,> 10,,22.3
"CN(C)CCNc1cc(F)cc(-c2nccc3[nH]c(-c4n[nH]c5ccc(-c6ccccn6)nc45)nc23)c1 [Compound 476, N^1-(3-Fluoro-5-(2-(5-(pyridin-2-yl)-1H-pyrazolo[4,3-b]pyridin-3-yl)-1H-imidazo[4,5-c]pyridin-4-yl)phenyl)-N^2,N^2-dimethylethane-1,2-diamine]",,> 10,,35.8
"Cc1ccc(-c2nccc3[nH]c(-c4n[nH]c5ccc(-c6cncc(NC(=O)C7CCCC7)c6)nc45)nc23)s1 [Compound 414, N-(5-(3-(4-(5-Methylthiophen-2-yl)-1H-imidazo[4,5-c]pyridin-2-yl)-1H-pyrazolo[4,3-b]pyridin-5-yl)pyridin-3-yl)cyclopentanecarboxamide]",,> 10,,46.3
"O=C(CC1CCNCC1)Nc1cncc(-c2ccc3[nH]nc(-c4nc5c(-c6ccccn6)nccc5[nH]4)c3n2)c1 [Compound 593, 2-(Piperidin-4-yl)-N-(5-(3-(4-(pyri-2-yl)-1H-imidazo[4,5-c]pyridin-2-yl)-1H-pyrazolo[4,3-b]pyridin-5-yl)pyridin-3-yl)acetamide]",,> 10,,32.5
"c1cc(-c2nccc3[nH]c(-c4n[nH]c5ccc(-c6cnccn6)nc45)nc23)ccn1 [Compound 584, 5-(Pyrazin-2-yl)-3-(4-(pyridin-4-yl)-1H-imidazo[4,5-c]pyridin-2-yl)-1H-pyrazolo[4,3-b]pyridine]",,> 10,,32.2
"Cc1cn(-c2nccc3[nH]c(-c4n[nH]c5ccc(-c6cncc(OCCN(C)C)c6)nc45)nc23)cn1 [Compound 627, N,N-Dimethyl-2-((5-(3-(4-(4-methyl-1H-imidazol-1-yl)-1H-imidazo[4,5-c]pyridin-2-yl)-1H-pyrazolo[4,3-b]pyridin-5-yl)pyridin-3-yl)oxy)ethan-1-amine]",,> 10,,17.6
"CS(=O)(=O)NCc1cc(F)cc(-c2nccc3[nH]c(-c4n[nH]c5ccc(-c6cncc(NC(=O)c7ccccc7)c6)nc45)nc23)c1 [Compound 487, N-(5-(3-(4-(3-Fluoro-5-(methylsulfonamidomethyl)phenyl)-1H-imidazo[4,5-c]pyridin-2-yl)-1H-pyrazolo[4,3-b]pyridin-5-yl)pyridin-3-yl)benzamide]",,> 10,,16.9
"c1ccc(COc2cncc(-c3ccc4[nH]nc(-c5nc6c(-c7ccncc7)nccc6[nH]5)c4n3)c2)cc1 [Compound 582, 5-(5-(Benzyloxy)pyridin-3-yl)-3-(4-(pyridin-4-yl)-1H-imidazo[4,5-c]pyridin-2-yl)-1H-pyrazolo[4,3-b]pyridine]",,> 10,,8.3

# The next lines start with results.
EC50 [1] [nM],EC50 [2] [µM],SMILES,Emax [1] [%],inhibition at 10 µM [2] [%]
,> 10,"Cn1cc(-c2ccc3[nH]nc(-c4nc5c(-c6cccc(F)c6)nccc5[nH]4)c3n2)cn1 [Compound 508, 3-(4-(3-Fluorophenyl)-1H-imidazo[4,5-c]pyridin-2-yl)-5-(1-methyl-1H-pyrazol-4-yl)-1H-pyrazolo[4,3-b]pyridine]",43,0
30,3.82,"CN(C)Cc1cncc(-c2ccc3[nH]nc(-c4nc5c(-c6cccc(F)c6)nccc5[nH]4)c3n2)c1 [Compound 13, 1-(5-(3-(4-(3-Fluorophenyl)-1H-imidazo[4,5-c]pyridin-2-yl)-1H-pyrazolo [4,3-b]pyridin-5-yl)pyridin-3-yl)-N,N-dimethylmethanamine]",76,
21,> 10,"COc1cncc(-c2ccc3[nH]nc(-c4nc5c(-c6cccc(F)c6)nccc5[nH]4)c3n2)c1 [Compound 516, 3-(4-(3-Fluorophenyl)-1H-imidazo[4,5-c]pyridin-2-yl)-5-(5-methoxypyridin-3-yl)-1H-pyrazolo[4,3-b]pyridine]",60,25.1
21,> 10,"Fc1cccc(-c2nccc3[nH]c(-c4n[nH]c5ccc(-c6cnccn6)nc45)nc23)c1 [Compound 520, 3-(4-(3-Fluorophenyl)-1H-imidazo[4,5-c]pyridin-2-yl)-5-(pyrazin-2-yl)-1H-pyrazolo[4,3-b]pyridine]",55,29.4
,3.1,"Oc1cncc(-c2ccc3[nH]nc(-c4nc5c(-c6cccnc6)nccc5[nH]4)c3n2)c1 [Compound 565, 5-(3-(4-(Pyridin-3-yl)-1H-imidazo[4,5-c]pyridin-2-yl)-1H-pyrazolo[4,3-b]pyridin-5-yl)pyridin-3-ol]",,
,> 10,"O=C(Nc1cncc(-c2ccc3[nH]nc(-c4nc5c(-c6cccc(F)c6)nccc5[nH]4)c3n2)c1)C1CC1 [Compound 20, N-(5-(3-(4-(3-Fluorophenyl)-1H-imidazo[4,5-c]pyridin-2-yl)-1H-pyrazolo [4,3-b]pyridin-5-yl)pyridin-3-yl)cyclopropanecarboxamide]",,0
21,> 10,"CC(C)CC(=O)Nc1cncc(-c2ccc3[nH]nc(-c4nc5c(-c6cccc(F)c6)nccc5[nH]4)c3n2)c1 [Compound 2, N-(5-(3-(4-(3-Fluorophenyl)-1H-imidazo[4,5-c]pyridin-2-yl)-1H-pyrazolo [4,3-b]pyridin-5-yl)pyridin-3-yl)-3-methylbutanamide]",58,2.5
,> 10,"c1cncc(-c2nccc3[nH]c(-c4n[nH]c5ccc(-c6cncc(OC7CCCCC7)c6)nc45)nc23)c1 [Compound 559, 5-(5-(Cyclohexyloxy)pyridin-3-yl)-3-(4-(pyridin-3-yl)-1H-imidazo[4,5-c]pyridin-2-yl)-1H-pyrazolo[4,3-b]pyridine]",,42.7
,> 10,"c1cc2[nH]c(-c3n[nH]c4ccc(-c5cncc(OCCN6CCCC6)c5)nc34)nc2c(N2CCCCC2)n1 [Compound 610, 3-(4-(Piperidin-1-yl)-1H-imidazo[4,5-c]pyridin-2-yl)-5-(5-(2-(pyrrolidin-1-yl)ethoxy)pyridin-3-yl)-1H-pyrazolo[4,3-b]pyridine]",,34.9
,> 10,"Fc1cccc(-c2nccc3[nH]c(-c4n[nH]c5ccc(-c6cncc(OCCN7CCCC7)c6)nc45)nc23)c1 [Compound 514, 3-(4-(3-Fluorophenyl)-1H-imidazo[4,5-c]pyridin-2-yl)-5-(5-(2-(pyrrolidin-1-yl)ethoxy)pyridin-3-yl)-1H-pyrazolo[4,3-b]pyridine]",,47.8
